Legend:
[1] = tested on: rat hypothalamus extracts; test: Dynamic NIR spectroscopy of rat hypothalamus extracts in presence of bithionol; details: FIG. 11
Text: Sample buffer constituted the blank.

[2] = tested on: crude membrane proteins from each patient's PBMC; test: Dynamic NIR spectroscopy of crude PBMC membrane proteins of IBD patients in absence and presence of infliximab; design: species or system human; details: infliximab 10e-6M, samples of patients responding to infliximab, 850-1450 nm, FIG. 17
Description: All the patients have a treatment: infliximab (Remicad®). infliximab is an anti-TNFalpha. 50 patients (women=16, men=34) with an average age of 43±8 year seeking medical assistance at Erlangen hospital day-care unit are taking part to the study. Patient's whole blood is collected using sodium citrate vacutainer tubes (5-10 ml/patient). Samples are blinded.
Peripheral blood mononuclear cells (PBMCs) are separated and isolated on ficoll gradient from blood samples, and then frozen. Crude PBMC membranes are prepared in physiological conditions without addition of any protease inhibitor or anti-phosphatase or lyses buffer. PBMC samples were subjected to three fast deep freezing (liquid nitrogen, slow thaw at 4° C., cycle. Determination of protein concentration: total protein concentration was determined using BCA assay (BCA Protein Assay Reagent, bicinchoninic acid). […]
One variable is analyzed in presence and in absence of infliximab: Compare Individual Macromolecular Volume (INV), that is defined as the total macromolecular spectral change from −37° C. to 37° C., due to the macromolecular conformational changes in absence and presence of a drug, expressed as change in absorbance as a function of wavelength and temperature. […]
Results are analyzed based on their spectral fingerprints going from −37° C. to 37° C. and compared to identify responders and non-responders patients.

Which “effect on protein assemblies / protein conformation (water molecules spectra in NIR wavelength)” value ([1]; 1 μM test molecule, extract 10^−6 mg/ml, −37° C. to 37° C.) does the source give for `Oc1c(Cl)cc(Cl)cc1Sc1cc(Cl)cc(Cl)c1O` [bithionol] here?
The value was “disturbs the protein assemblies”.

And the “reversibility of induced conformation changes” value ([1]; 1 μM, visible in low temperature (most at −37° C.))?
Its value is “reversible as the temperature rises”.

How did the “Individual Macromolecular Volume (INV), total macromolecular spectral change from −37° C. to 37° C.” value [2] turn out when infliximab was run?
Its value is “increases unanimously”.

Source: patent US9709486B2, “Method of dynamic spectroscopy under physiological conditions” (INOVIEM SCIENTIFIC, priority 2012, dated 2017)
